This is an account of results in patent publication US20070161665A1, “Cancer treatment method” (priority 2003, published 2007).

The test system of one test is HN5 cells. The test is described as follows: Roche Cell Death ELISAPlus apoptosis assay in HN5 cells (median effect and sensitization ratio analysis). The class given is cell-based. As to the method:
HN5 cells are LICR-LON-HN5 head and neck carcinoma cells, which were a gift from the Institute of Cancer Research, Surrey, U.K.
(§1) Cell lines were grown in RPMI-1640 supplemented with 25 mM HEPES, 10 mM glutamine and 10% fetal bovine serum and maintained at 37° C. and 5% CO2 in a humid incubator. Assays were performed in 96 well microtiter plates with optimum seeding densities for each cell line.
(§2) Apoptosis was measured using the Roche Cell Death ELISA^Plus kit (catalog 1 774 425) which detects fragmented nucleosomal DNA that is generated during apoptosis.
Synergistic interaction between compounds was analyzed by the median effect method described by Chou and Talalay (Adv. Enzyme Regul. 22: 27-55, 1984). Briefly, if the two compounds fit the mutually exclusive model of Chou, one calculates the combination index (CI) using the formula CI=((D)1/(Dx)1)+((D)2/(Dx)2) (1) where (D)1 is the concentration of drug 1 in the combination that gives “x” percent apoptosis, (D)2 is the same for drug 2, and (Dx)1 and (Dx)2 are the concentrations of drug 1 or 2 that give “x” percent apoptosis when used alone. (D)1 and (D)2 are known from the composition of the combination and (Dx)1 and (Dx)2 can be calculated from the equation Dx=Dm*[fa/(1−fa)]^1/m (2) where Dm is the concentration of drug giving 50% effect, fa is the fraction affected, and m is the slope from the median effect plot of log (fa/fu) where fu is the fraction unaffected versus log (D). A CI less than 1 indicates synergy, equal to 1 indicates additivity and greater than 1 antagonism.
(§3) Sensitization is measured as the ratio between observed and expected apoptosis or caspase activation from a combination of AKT kinase inhibitor and EGFR/erb inhibitor. The expected level of activity (Ae) is calculated by Ae=1−((1−A1)*(1−A2)) (3) where A1 and A2 are the activities of drugs 1 and 2 alone at the concentration used in the combination (Harvey, R. J., J. Theor. Biol. 74: 411-437, 1978).

In a further test the target is AKT1 (Homo sapiens, UniProt P31749). The test is described as follows: Inhibition of AKT isoforms, enzyme IC50. The class given is biochemical.
Sequence of AKT1 (P31749 whole entry, species assumed, canonical isoform): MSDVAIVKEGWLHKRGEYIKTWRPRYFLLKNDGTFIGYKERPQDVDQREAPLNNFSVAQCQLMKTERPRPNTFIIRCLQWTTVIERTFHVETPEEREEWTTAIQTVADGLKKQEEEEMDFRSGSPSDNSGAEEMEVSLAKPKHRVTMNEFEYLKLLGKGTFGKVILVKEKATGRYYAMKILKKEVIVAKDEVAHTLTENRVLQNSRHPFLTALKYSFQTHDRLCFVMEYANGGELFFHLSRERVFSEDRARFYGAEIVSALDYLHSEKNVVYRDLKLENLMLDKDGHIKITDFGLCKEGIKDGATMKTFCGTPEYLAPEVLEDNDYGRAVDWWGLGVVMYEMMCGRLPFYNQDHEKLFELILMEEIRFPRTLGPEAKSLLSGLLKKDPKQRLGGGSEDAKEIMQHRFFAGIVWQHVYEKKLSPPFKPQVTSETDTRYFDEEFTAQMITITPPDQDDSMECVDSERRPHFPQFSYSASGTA
The target of another test is AKT2 (Homo sapiens, UniProt P31751). The test is described as follows: Inhibition of AKT isoforms, enzyme IC50. The format is biochemical.
Sequence of AKT2 (P31751 whole entry, species assumed, canonical isoform): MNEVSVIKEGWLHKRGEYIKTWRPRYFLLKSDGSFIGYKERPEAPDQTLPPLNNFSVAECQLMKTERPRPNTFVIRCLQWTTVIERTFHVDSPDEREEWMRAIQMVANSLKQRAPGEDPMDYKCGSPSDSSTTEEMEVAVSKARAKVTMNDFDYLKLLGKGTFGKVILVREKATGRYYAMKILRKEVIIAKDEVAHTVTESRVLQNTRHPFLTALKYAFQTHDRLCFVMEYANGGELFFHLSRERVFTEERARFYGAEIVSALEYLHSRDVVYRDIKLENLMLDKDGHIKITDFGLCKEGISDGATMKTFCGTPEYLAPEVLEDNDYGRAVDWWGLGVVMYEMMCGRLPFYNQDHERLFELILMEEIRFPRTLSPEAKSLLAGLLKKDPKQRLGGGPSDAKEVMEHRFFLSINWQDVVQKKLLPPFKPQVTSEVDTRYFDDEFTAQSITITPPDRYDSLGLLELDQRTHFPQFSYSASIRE
A further test deals with AKT3 (Homo sapiens, UniProt Q9Y243). The test is described as follows: Inhibition of AKT isoforms, enzyme IC50. The format is biochemical.
Sequence of AKT3 (Q9Y243 whole entry, species assumed, canonical isoform): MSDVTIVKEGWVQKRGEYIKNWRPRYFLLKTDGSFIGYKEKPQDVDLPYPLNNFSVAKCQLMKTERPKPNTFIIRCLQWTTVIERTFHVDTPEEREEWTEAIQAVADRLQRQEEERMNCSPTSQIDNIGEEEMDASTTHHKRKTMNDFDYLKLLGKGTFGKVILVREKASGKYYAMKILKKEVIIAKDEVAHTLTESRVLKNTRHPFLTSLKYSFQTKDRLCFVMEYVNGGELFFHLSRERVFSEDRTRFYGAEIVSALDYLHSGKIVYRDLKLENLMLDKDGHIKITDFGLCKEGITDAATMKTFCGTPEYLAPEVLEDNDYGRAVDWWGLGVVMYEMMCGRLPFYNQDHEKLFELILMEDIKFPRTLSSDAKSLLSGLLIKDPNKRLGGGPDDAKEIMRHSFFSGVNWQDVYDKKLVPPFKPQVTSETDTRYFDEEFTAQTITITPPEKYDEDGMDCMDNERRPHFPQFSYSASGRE
A further test relates to T47D cells. The test is described as follows: Roche Cell Death ELISAPlus apoptosis assay in T47D cells (sensitization ratio). The conditions noted are these: for Apoptosis (FIG. 6): 10 μM GW572016 or 100 μM LY294002 separately. The class given is cell-based, human. On the procedure:
T47D cells are human breast ductal carcinoma cells originally obtained from the American Type Culture Collection.
as §1, §2
The expected level of activity (Ae) is calculated by Ae=1−((1−A1)*(1−A2)) (3) where A1 and A2 are the activities of drugs 1 and 2 alone at the concentration used in the combination (Harvey, R. J., J. Theor. Biol. 74: 411-437, 1978).
Apoptosis was measured using the Roche Cell Death ELISA^Plus kit, and the relative percentage of apoptosis was determined for each combination.

The next test concerns MDA-MB468 cells. The test is described as follows: Roche Cell Death ELISAPlus apoptosis assay in MDA-MB468 cells (sensitization ratio). The class given is cell-based, human. On the procedure: MDA-MB468 cells are human breast adenocarcinoma cells originally obtained from the American Type Culture Collection.
as §1, §2, §3
MDA-MB468 cells were incubated with varied concentrations of GW583340 for 24 h followed by an additional 4 h incubation with varied concentrations of LY294002. Apoptosis was measured using the Roche Cell Death ELISA^Plus kit, and the relative percentage of apoptosis was determined for each combination. When 1, 2, or 5 μM GW583340 were combined with 100 μM LY294002, SR values 3.4, 4.2 and 5.0, respectively, indicated significant synergism. At lower concentrations of LY294002, lesser degrees of synergism were observed.

Where [1] appears, read: HN5, 24 h; concentration of the named drug within the 1:2 GW572016:LY294002 combo at Dm; read-out: Dm, drug in combo.
Setting [2] is: HN5, 24 h; concentration of the named drug within the 1:10 GW572016:LY294002 combo at Dm; read-out: Dm, drug in combo.
The mark [3] stands for this setting: GW572016 2 μM 24 h, then LY294002 0 μM 4 h.
[4] abbreviates: GW572016 5 μM 24 h, then LY294002 0 μM 4 h.
The mark [5] stands for this setting: GW572016 10 μM 24 h, then LY294002 0 μM 4 h.
The mark [6] stands for this setting: GW583340 1 μM 24 h, then LY294002 0 μM 4 h.
Setting [7] is: GW583340 2 μM 24 h, then LY294002 0 μM 4 h.
Setting [8] is: GW583340 5 μM 24 h, then LY294002 0 μM 4 h.
The mark [9] stands for this setting: HN5, 24 h; concentration of the named drug within the 1:2 GW589522:LY294002 combo at Dm; read-out: Dm, drug in combo.
Where [10] appears, read: HN5, 24 h; concentration of the named drug within the 1:10 GW589522:LY294002 combo at Dm; read-out: Dm, drug in combo.
Setting [11] is: Homo sapiens, HN5, 24 h; drug alone (Table 3); concentration giving 50% effect; read-out: Dm.
Setting [12] is: GW572016 0 μM 24 h, then LY294002 20 μM 4 h.
Where [13] appears, read: GW572016 0 μM 24 h, then LY294002 50 μM 4 h.
Where [14] appears, read: GW572016 0 μM 24 h, then LY294002 100 μM 4 h.
Where [15] appears, read: GW583340 0 μM 24 h, then LY294002 4 μM 4 h.
[16] abbreviates: GW583340 0 μM 24 h, then LY294002 10 μM 4 h.
[17] abbreviates: GW583340 0 μM 24 h, then LY294002 20 μM 4 h.
Where [18] appears, read: GW583340 0 μM 24 h, then LY294002 50 μM 4 h.
The mark [19] stands for this setting: GW583340 0 μM 24 h, then LY294002 100 μM 4 h.

pEC50, pIC50: −log10 of the molar value. Where a name gives a salt, the structure may show the parent alone. Read-outs that look alike come from different tables or passages of the source.

As usually defined, the pIC50 is the IC50 on a negative log10 scale, so that one unit is a factor of ten. A high value points to a low IC50. On to `CCn1c(-c2nonc2N)nc2cncc(OC3CCNCC3)c21` [Ex 9 (tri-HCl salt), 4-[1-Ethyl-7-(piperidin-4-yloxy)-1H-imidazo[4,5-c]pyridin-2-yl]-furazan-3-ylamine], for which the “Sensitization Ratio in HN5 with 5 μM GW589522A” value (shortened to “Sensitization Ratio in HN5”) in the test with HN5 cells (HN5; 5 μM GW589522A 24 h, then compound 8 μM 4 h) is 10 @ 8. The results for the pIC50 on AKT1, at AKT2 and against AKT3 were 7.30, 6.57 and 6.72, respectively.

Turning to `CCn1c(-c2nonc2N)nc2cncc(OC3CCNCC3)c21` [Ex 9, 4-[1-Ethyl-7-(piperidin-4-yloxy)-1H-imidazo[4,5-c]pyridin-2-yl]-furazan-3-ylamine], the “Sensitization Ratio in HN5” value in the test with HN5 cells (HN5; 5 μM GW589522A 24 h, then compound 4 μM 4 h) is listed as 2.6 @ 4. Besides, the “Net Apoptosis” value was determined as 2.7% with HN5 cells (HN5; GW572016 0 μM 24 h, then Ex 9 2 μM 4 h); 1.8% in the test with HN5 cells (HN5; GW572016 0 μM 24 h, then Ex 9 4 μM 4 h); 3.9% in the test with HN5 cells (HN5; GW572016 0 μM 24 h, then Ex 9 8 μM 4 h); 3.7% in the test with HN5 cells (HN5; GW572016 0 μM 24 h, then Ex 9 16 μM 4 h); 4.7% in the test on HN5 cells (HN5; GW572016 0 μM 24 h, then Ex 9 20 μM 4 h); 6.3% in the test on HN5 cells (HN5; GW589522 0 μM 24 h, then Ex 9 0.5 μM 4 h). The “Net Apoptosis” value with HN5 cells (HN5; GW589522 0 μM 24 h, then Ex 9 2 μM 4 h) is on record as 8.7%; in the test with HN5 cells (HN5; GW589522 0 μM 24 h, then Ex 9 8 μM 4 h) it was 17.9%. In addition, the pIC50 is 6.89 at AKT1, 6.41 against AKT2 and 6.39 on AKT3.

On to `CCn1c(-c2nonc2N)nc2c(-c3ccccc3)ncc(OCC3CCCNC3)c21.O=C(O)C(F)(F)F` (stereo not drawn) [Ex 10, 4-{1-ethyl-4-phenyl-7-[(3-piperidinylmethyl)oxy]-1H-imidazo[4,5-c]pyridin-2-yl}-1,2,5-oxadiazol-3-amine trifluoroacetate], for which the “Sensitization Ratio in HN5” value in the test with HN5 cells (HN5; 5 μM GW589522A 24 h, then compound 10 μM 4 h) is on record as 3.7 @ 10. Besides, the results for the negative logarithm of the IC50 (pIC50) against AKT1, on AKT2 and against AKT3 were 8.00, 7.52 and 8.00, respectively.

On to `CS(=O)(=O)CCNCc1ccc(-c2ccc3ncnc(Nc4ccc(OCc5cccc(F)c5)c(Cl)c4)c3c2)o1.Cc1ccc(S(=O)(=O)O)cc1.Cc1ccc(S(=O)(=O)O)cc1.O` [GW572016, N-{3-Chloro-4-[(3-fluorobenzyl)oxy]phenyl}-6-[5-({[2-(methanesulphonyl)ethyl]amino}methyl)-2-furyl]-4-quinazolinamine ditosylate monohydrate], for which the pEC50 with HN5 cells (setting [1]) was 5.14; in the test with HN5 cells (setting [2]), 5.28; in the test with HN5 cells (Homo sapiens; HN5, 24 h; drug alone (Table 1); concentration giving 50% effect; read-out: Dm), 4.99. Besides, the “Net Apoptosis” value is −1.0% with HN5 cells (HN5; GW572016 2 μM 24 h, then Ex 9 0 μM 4 h); 2.5% with HN5 cells (HN5; GW572016 4 μM 24 h, then Ex 9 0 μM 4 h); 5.1% in the test with HN5 cells (HN5; GW572016 10 μM 24 h, then Ex 9 0 μM 4 h); 0.4% with T47D cells (setting [3]); 0.3% with T47D cells (setting [4]); 2.2% in the test with T47D cells (setting [5]). In addition, the “Apoptosis (FIG. 6)” value with T47D cells is “little effect”. Further, the “Net avg A405 nm” value in the test with T47D cells (setting [3]) is reported as 0.013; in the test on T47D cells (setting [4]) it was 0.013; in the test on T47D cells (setting [5]), 0.042.

`CS(=O)(=O)CCNCc1nc(-c2ccc3ncnc(Nc4ccc(OCc5cccc(F)c5)c(Cl)c4)c3c2)cs1` [GW583340, (4-(3-Fluoro-benzyloxy)-3-chlorophenyl)-(6-(2-((2-methanesulphonyl-ethylamino)-methyl)-thiazol-4-yl)quinazolin-4-yl)-amine]: the “Net Apoptosis” value with MDA-MB468 cells (setting [6]) is 4.8%; in the test on MDA-MB468 cells (setting [7]), 4.2%; in the test with MDA-MB468 cells (setting [8]) it was 7.4%. Besides, the “Net avg A405 nm” value in the test on MDA-MB468 cells (setting [6]) turned out to be 0.294; with MDA-MB468 cells (setting [7]) it was 0.286; in the test with MDA-MB468 cells (setting [8]), 0.325.

As to `CS(=O)(=O)CCNCc1ccc(-c2ccc3ncnc(Nc4ccc(OCc5cccc(F)c5)c(Br)c4)c3c2)o1` [GW589522, (4-(3-Fluoro-benzyloxy)-3-bromophenyl)-(6-(5-((2-methanesulphonyl-ethylamino)-methyl)-furan-2-yl)quinazolin-4-yl)-amine], the pEC50 with HN5 cells (setting [9]) is 5.07; in the test with HN5 cells (setting [10]) it was 5.36; in the test with HN5 cells (setting [11]), 4.80. For the same molecule, the “Net Apoptosis” value with HN5 cells (HN5; GW589522 1.56 μM 24 h, then Ex 9 0 μM 4 h) is −1.0%; in the test with HN5 cells (HN5; GW589522 3.12 μM 24 h, then Ex 9 0 μM 4 h), 2.5%; in the test on HN5 cells (HN5; GW589522 6.25 μM 24 h, then Ex 9 0 μM 4 h), 2.5%; in the test with HN5 cells (HN5; GW589522 12.5 μM 24 h, then Ex 9 0 μM 4 h), 5.1%.

Take `O=c1cc(N2CCOCC2)oc2c(-c3ccccc3)cccc12` [LY294002, 2-(4-morpholinyl)-8-phenyl-4H-1-benzopyran-4-one, reference compound]: the pEC50 is 4.84 in the test with HN5 cells (setting [1]); 4.76 with HN5 cells (setting [9]); 4.28 in the test with HN5 cells (setting [2]); 4.35 in the test on HN5 cells (setting [10]); 3.73 in the test on HN5 cells (Homo sapiens, HN5, 24 h; drug alone (Table 1); concentration giving 50% effect; read-out: Dm); 3.91 with HN5 cells (setting [11]). The “Apoptosis (FIG. 6)” value in the test on T47D cells is “little effect”. Further, the “Net Apoptosis” value in the test with T47D cells (setting [12]) was found to be 2.2%; in the test with T47D cells (setting [13]), 3.6%; in the test with T47D cells (setting [14]), 4.5%; in the test with MDA-MB468 cells (setting [15]) it was 4.8%; in the test with MDA-MB468 cells (setting [16]), 6.5%; in the test with MDA-MB468 cells (setting [17]) it was 8.6%. Further, the figures for the “Net Apoptosis” value with MDA-MB468 cells (setting [18]) and with MDA-MB468 cells (setting [19]) were 9.0% and 13.7%, respectively. The “Net avg A405 nm” value was found to be 0.041 in the test on T47D cells (setting [12]); 0.063 in the test on T47D cells (setting [13]); 0.077 in the test on T47D cells (setting [14]); 0.294 in the test with MDA-MB468 cells (setting [15]); 0.314 in the test with MDA-MB468 cells (setting [16]); 0.338 in the test on MDA-MB468 cells (setting [17]). Moreover, the “Net avg A405 nm” value is on record as 0.344 with MDA-MB468 cells (setting [18]) and 0.399 in the test with MDA-MB468 cells (setting [19]).
